{
  "source": "patent US20260285850A1",
  "about": "“SUBSTITUTED OXAZOLIDINONES AND IMIDAZOLINONES AS HERBICIDES” (FMC CORPORATION, priority 2023, published 2026)",
  "assay_type_in_all_cases": "in vivo",
  "key": {"[1]": {"test_system": "ducksalad (Heteranthera limosa)", "test": "Test B flooded paddy test, visual plant response rating 0-100", "conditions": "250 g ai/ha, Flood, applied to paddy water, evaluated after 13 days", "method_in_brief": "(§1)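 In this flooded assay, 2-leaf seedlings received compound through the water layer, kept at 3 cm over the soil. Plants were held 13 days in a greenhouse and then visually compared with control pots.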"}, "[2]": {"test_system": "sedge, umbrella (small-flower umbrella sedge, Cyperus difformis)", "test": "Test B flooded paddy test, visual plant response rating 0-100", "conditions": "250 g ai/ha, Flood, applied to paddy water, evaluated after 13 days", "method_in_brief": "as §1"}, "[3]": {"test_system": "barnyardgrass (Echinochloa crusgalli)", "test": "Test B flooded paddy test, visual plant response rating 0-100", "conditions": "250 g ai/ha, Flood, applied to paddy water, evaluated after 13 days", "method_in_brief": "as §1"}, "[4]": {"test_system": "rice (Oryza sativa)", "test": "Test B flooded paddy test, visual plant response rating 0-100", "conditions": "250 g ai/ha, Flood, applied to paddy water, evaluated after 13 days", "method_in_brief": "as §1"}, "[5]": {"test_system": "corn (Zea mays)", "test": "Test A postemergence application, visual injury rating 0-100", "method_in_brief": "(§2)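 Grow plants in loam soil blended with sand. Apply formulated compound (non-phytotoxic solvent, surfactant) as a directed soil spray before emergence, or to plants at the one- to two-leaf stage after emergence. Hold in greenhouse 10 days, then rate injury visually versus untreated controls on a 0-100 scale.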"}, "[6]": {"test_system": "galium (catchweed bedstraw, Galium aparine)", "test": "Test A postemergence application, visual injury rating 0-100", "method_in_brief": "as §2"}, "[7]": {"test_system": "ragweed (common ragweed, Ambrosia artemisiifolia)", "test": "Test A postemergence application, visual injury rating 0-100", "method_in_brief": "as §2"}, "[8]": {"test_system": "green foxtail (Setaria viridis)", "test": "Test A postemergence application, visual injury rating 0-100", "method_in_brief": "as §2"}, "[9]": {"test_system": "palmer (palmer amaranth, palmer pigweed, Amaranthus palmeri)", "test": "Test A postemergence application, visual injury rating 0-100", "method_in_brief": "as §2"}, "[10]": {"test_system": "soybean (Glycine max)", "test": "Test A postemergence application, visual injury rating 0-100", "method_in_brief": "as §2"}, "[11]": {"test_system": "barnyardgrass (Echinochloa crus-galli)", "test": "Test A postemergence application, visual injury rating 0-100", "method_in_brief": "as §2"}, "[12]": {"test_system": "oat, wild (wild oat, Avena fatua)", "test": "Test A postemergence application, visual injury rating 0-100", "method_in_brief": "as §2"}, "[13]": {"test_system": "blackgrass (Alopecurus myosuroides)", "test": "Test A postemergence application, visual injury rating 0-100", "method_in_brief": "as §2"}, "[14]": {"test_system": "horseweed (Erigeron canadensis)", "test": "Test A postemergence application, visual injury rating 0-100", "method_in_brief": "as §2"}, "[15]": {"test_system": "kochia (Bassia scoparia)", "test": "Test A postemergence application, visual injury rating 0-100", "method_in_brief": "as §2"}, "[16]": {"test_system": "wheat (Triticum aestivum)", "test": "Test A postemergence application, visual injury rating 0-100", "method_in_brief": "as §2"}, "[17]": {"test_system": "ryegrass, Italian (italian ryegrass, Lolium multiflorum)", "test": "Test A postemergence application, visual injury rating 0-100", "method_in_brief": "as §2"}, "[18]": {"test_system": "corn (Zea mays)", "test": "Test A preemergence soil spray, visual injury rating 0-100", "conditions": "10 days", "method_in_brief": "as §2"}, "[19]": {"test_system": "ragweed (common ragweed, Ambrosia artemisiifolia)", "test": "Test A preemergence soil spray, visual injury rating 0-100", "conditions": "10 days", "method_in_brief": "as §2"}, "[20]": {"test_system": "green foxtail (Setaria viridis)", "test": "Test A preemergence soil spray, visual injury rating 0-100", "conditions": "10 days", "method_in_brief": "as §2"}, "[21]": {"test_system": "palmer (palmer amaranth, palmer pigweed, Amaranthus palmeri)", "test": "Test A preemergence soil spray, visual injury rating 0-100", "conditions": "10 days", "method_in_brief": "as §2"}, "[22]": {"test_system": "soybean (Glycine max)", "test": "Test A preemergence soil spray, visual injury rating 0-100", "conditions": "10 days", "method_in_brief": "as §2"}, "[23]": {"test_system": "barnyardgrass (Echinochloa crus-galli)", "test": "Test A preemergence soil spray, visual injury rating 0-100", "conditions": "10 days", "method_in_brief": "as §2"}, "[24]": {"test_system": "oat, wild (wild oat, Avena fatua)", "test": "Test A preemergence soil spray, visual injury rating 0-100", "conditions": "10 days", "method_in_brief": "as §2"}, "[25]": {"test_system": "blackgrass (Alopecurus myosuroides)", "test": "Test A preemergence soil spray, visual injury rating 0-100", "conditions": "10 days", "method_in_brief": "as §2"}, "[26]": {"test_system": "kochia (Bassia scoparia)", "test": "Test A preemergence soil spray, visual injury rating 0-100", "conditions": "10 days", "method_in_brief": "as §2"}, "[27]": {"test_system": "wheat (Triticum aestivum)", "test": "Test A preemergence soil spray, visual injury rating 0-100", "conditions": "10 days", "method_in_brief": "as §2"}, "[28]": {"test_system": "ryegrass, Italian (italian ryegrass, Lolium multiflorum)", "test": "Test A preemergence soil spray, visual injury rating 0-100", "conditions": "10 days", "method_in_brief": "as §2"}, "[29]": {"conditions": "62 g ai/ha, postemergence, 10 days, 0 = no effect, 100 = complete control"}, "[30]": {"conditions": "Postemergence, 16 g ai/ha, greenhouse 10 days, 0 no effect, 100 complete control"}, "[31]": {"conditions": "62 g ai/ha, 0 = no effect, 100 = complete control"}},
  "data": [
    {"smiles": "COC(=O)C1C=CC(NC(=O)C2(C)CN(c3cccc(OC(F)(F)F)c3)C(=O)O2)C1", "note": "(mixture of isomers) [Compound 101]", "values": [
      {"measurement": "Plant response rating, Ducksalad (0 to 100 scale, 0 is no effect and 100 is complete control)", "setting": "[1]", "result": 0},
      {"measurement": "Plant response rating, Sedge, Umbrella (0 to 100 scale, 0 is no effect and 100 is complete control)", "setting": "[2]", "result": 0},
      {"measurement": "Plant response rating, Barnyardgrass (0 to 100 scale, 0 is no effect and 100 is complete control)", "setting": "[3]", "result": 0},
      {"measurement": "Plant response rating, Rice (0 to 100 scale, 0 is no effect and 100 is complete control)", "setting": "[4]", "result": 0},
      {"measurement": "Corn plant response rating (0-100)", "setting": "[5]; [29]", "result": 90},
      {"measurement": "Corn plant response rating (0 to 100 scale)", "setting": "[5]; [30]", "result": 50},
      {"measurement": "Galium plant response rating (0-100)", "setting": "[6]; [29]", "result": 60},
      {"measurement": "Galium plant response rating (0 to 100 scale)", "setting": "[6]; [30]", "result": 50},
      {"measurement": "Ragweed plant response rating (0-100)", "setting": "[7]; [29]", "result": 30},
      {"measurement": "Ragweed plant response rating (0 to 100 scale)", "setting": "[7]; [30]", "result": 0},
      {"measurement": "Foxtail, Green plant response rating (0-100)", "setting": "[8]; [29]", "result": 50},
      {"measurement": "Foxtail, Green plant response rating (0 to 100 scale)", "setting": "[8]; [30]", "result": 10},
      {"measurement": "Pigweed, Palmer plant response rating (0-100)", "setting": "[9]; [29]", "result": 10},
      {"measurement": "Pigweed, Palmer plant response rating (0 to 100 scale)", "setting": "[9]; [30]", "result": 0},
      {"measurement": "Soybean plant response rating (0-100)", "setting": "[10]; [29]", "result": 60},
      {"measurement": "Soybean plant response rating (0 to 100 scale)", "setting": "[10]; [30]", "result": 40},
      {"measurement": "Barnyardgrass plant response rating (0-100)", "setting": "[11]; [29]", "result": 90},
      {"measurement": "Barnyardgrass plant response rating (0 to 100 scale)", "setting": "[11]; [30]", "result": 60},
      {"measurement": "Oat, Wild plant response rating (0-100)", "setting": "[12]; [29]", "result": 90},
      {"measurement": "Oat, Wild plant response rating (0 to 100 scale)", "setting": "[12]; [30]", "result": 70},
      {"measurement": "Blackgrass plant response rating (0-100)", "setting": "[13]; [29]", "result": 90},
      {"measurement": "Blackgrass plant response rating (0 to 100 scale)", "setting": "[13]; [30]", "result": 80},
      {"measurement": "Horseweed plant response rating (0-100)", "setting": "[14]; [29]", "result": 10},
      {"measurement": "Horseweed plant response rating (0 to 100 scale)", "setting": "[14]; [30]", "result": 10},
      {"measurement": "Kochia plant response rating (0-100)", "setting": "[15]; [29]", "result": 60},
      {"measurement": "Kochia plant response rating (0 to 100 scale)", "setting": "[15]; [30]", "result": 10},
      {"measurement": "Wheat plant response rating (0-100)", "setting": "[16]; [29]", "result": 80},
      {"measurement": "Wheat plant response rating (0 to 100 scale)", "setting": "[16]; [30]", "result": 30},
      {"measurement": "Ryegrass, Italian plant response rating (0-100)", "setting": "[17]; [29]", "result": 70},
      {"measurement": "Ryegrass, Italian plant response rating (0 to 100 scale)", "setting": "[17]; [30]", "result": 50},
      {"measurement": "Corn plant response rating", "setting": "[18]; 16 g ai/ha, 0 to 100 scale", "result": 0},
      {"measurement": "Corn plant response rating (0-100)", "setting": "[18]; [31]", "result": 50},
      {"measurement": "Ragweed plant response rating", "setting": "[19]; 16 g ai/ha, 0 to 100 scale", "result": 0},
      {"measurement": "Ragweed plant response rating (0-100)", "setting": "[19]; [31]", "result": 10},
      {"measurement": "Foxtail, Green plant response rating", "setting": "[20]; 16 g ai/ha, 0 to 100 scale", "result": 0},
      {"measurement": "Foxtail, Green plant response rating (0-100)", "setting": "[20]; [31]", "result": 0},
      {"measurement": "Pigweed, Palmer plant response rating", "setting": "[21]; 16 g ai/ha, 0 to 100 scale", "result": 0},
      {"measurement": "Pigweed, Palmer plant response rating (0-100)", "setting": "[21]; [31]", "result": 0},
      {"measurement": "Soybean plant response rating", "setting": "[22]; 16 g ai/ha, 0 to 100 scale", "result": 0},
      {"measurement": "Soybean plant response rating (0-100)", "setting": "[22]; [31]", "result": 0},
      {"measurement": "Barnyardgrass plant response rating", "setting": "[23]; 16 g ai/ha, 0 to 100 scale", "result": 0},
      {"measurement": "Barnyardgrass plant response rating (0-100)", "setting": "[23]; [31]", "result": 60},
      {"measurement": "Oat, Wild plant response rating", "setting": "[24]; 16 g ai/ha, 0 to 100 scale", "result": 0},
      {"measurement": "Oat, Wild plant response rating (0-100)", "setting": "[24]; [31]", "result": 80},
      {"measurement": "Blackgrass plant response rating", "setting": "[25]; 16 g ai/ha, 0 to 100 scale", "result": 0},
      {"measurement": "Blackgrass plant response rating (0-100)", "setting": "[25]; [31]", "result": 50},
      {"measurement": "Kochia plant response rating", "setting": "[26]; 16 g ai/ha, 0 to 100 scale", "result": 0},
      {"measurement": "Kochia plant response rating (0-100)", "setting": "[26]; [31]", "result": 0},
      {"measurement": "Wheat plant response rating", "setting": "[27]; 16 g ai/ha, 0 to 100 scale", "result": 0},
      {"measurement": "Wheat plant response rating (0-100)", "setting": "[27]; [31]", "result": 40},
      {"measurement": "Ryegrass, Italian plant response rating", "setting": "[28]; 16 g ai/ha, 0 to 100 scale", "result": 0},
      {"measurement": "Ryegrass, Italian plant response rating (0-100)", "setting": "[28]; [31]", "result": 80}
    ]}
  ]
}
